This test deals with T1, Vitronectin receptor αVβ3 (Homo sapiens, UniProt P05106+P06756).
T1 construct: expressed in transfected cells; host or cells: 512P5 cells (plasma membrane preparation)
T1 sequence (P06756 31-889 limits assumed): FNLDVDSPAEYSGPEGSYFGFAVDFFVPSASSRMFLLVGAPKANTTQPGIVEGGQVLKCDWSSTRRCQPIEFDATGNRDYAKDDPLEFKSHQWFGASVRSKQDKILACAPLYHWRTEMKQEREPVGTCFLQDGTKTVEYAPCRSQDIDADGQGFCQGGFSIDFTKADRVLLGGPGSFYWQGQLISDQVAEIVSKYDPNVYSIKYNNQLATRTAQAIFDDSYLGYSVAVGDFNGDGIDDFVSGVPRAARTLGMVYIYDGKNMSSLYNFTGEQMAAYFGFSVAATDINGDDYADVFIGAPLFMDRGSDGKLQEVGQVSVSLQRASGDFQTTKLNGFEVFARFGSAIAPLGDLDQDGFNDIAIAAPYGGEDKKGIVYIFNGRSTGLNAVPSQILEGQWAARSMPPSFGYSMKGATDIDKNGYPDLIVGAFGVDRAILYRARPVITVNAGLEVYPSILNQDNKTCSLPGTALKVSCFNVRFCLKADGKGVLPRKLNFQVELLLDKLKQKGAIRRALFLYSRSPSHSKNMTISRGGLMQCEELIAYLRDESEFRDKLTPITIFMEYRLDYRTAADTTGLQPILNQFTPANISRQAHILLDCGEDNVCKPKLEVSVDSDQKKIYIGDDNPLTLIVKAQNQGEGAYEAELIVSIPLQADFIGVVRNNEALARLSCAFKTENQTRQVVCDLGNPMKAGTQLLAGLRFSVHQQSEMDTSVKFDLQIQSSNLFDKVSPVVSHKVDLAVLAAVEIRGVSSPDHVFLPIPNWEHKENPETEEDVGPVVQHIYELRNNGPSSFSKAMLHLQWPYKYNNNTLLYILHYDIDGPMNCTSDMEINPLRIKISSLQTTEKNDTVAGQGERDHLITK
T1 sequence (P06756 891-1048 partner limits assumed): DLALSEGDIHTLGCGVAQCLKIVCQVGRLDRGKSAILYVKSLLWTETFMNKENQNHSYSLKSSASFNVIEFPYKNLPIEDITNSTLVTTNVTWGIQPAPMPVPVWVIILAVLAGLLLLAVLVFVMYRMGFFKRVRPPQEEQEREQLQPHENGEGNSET
T1 sequence (P05106 27-788): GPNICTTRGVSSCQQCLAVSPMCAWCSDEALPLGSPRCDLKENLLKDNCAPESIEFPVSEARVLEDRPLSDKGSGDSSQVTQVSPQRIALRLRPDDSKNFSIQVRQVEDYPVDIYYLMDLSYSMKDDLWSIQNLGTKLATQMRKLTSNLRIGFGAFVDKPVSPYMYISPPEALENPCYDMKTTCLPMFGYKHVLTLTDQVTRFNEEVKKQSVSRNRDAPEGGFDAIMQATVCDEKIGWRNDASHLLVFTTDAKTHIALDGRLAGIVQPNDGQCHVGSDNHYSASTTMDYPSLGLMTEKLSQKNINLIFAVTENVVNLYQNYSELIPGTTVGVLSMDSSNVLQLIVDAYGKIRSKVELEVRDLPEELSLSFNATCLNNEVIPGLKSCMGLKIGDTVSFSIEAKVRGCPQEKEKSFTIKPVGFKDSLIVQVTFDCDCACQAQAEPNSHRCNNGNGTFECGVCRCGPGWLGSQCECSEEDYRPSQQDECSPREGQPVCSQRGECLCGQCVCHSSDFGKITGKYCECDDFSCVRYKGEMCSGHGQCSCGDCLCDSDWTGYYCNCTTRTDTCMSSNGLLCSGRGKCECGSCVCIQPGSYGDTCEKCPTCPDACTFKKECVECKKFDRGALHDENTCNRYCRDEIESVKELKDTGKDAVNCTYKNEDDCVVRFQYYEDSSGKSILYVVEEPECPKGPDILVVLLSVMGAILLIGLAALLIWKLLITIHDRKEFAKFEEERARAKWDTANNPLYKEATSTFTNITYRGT
Put plainly: Vitronectin Receptor αVβ3 Binding Assay. Conditions: read-out: VnR (IC50μM).
As for `COC(=O)N[C@@H](CNC(=O)c1ccc(OCCNC(=N)N)cc1O)C(=O)O` [Example 158, (2S)-3-{[4-(2-{[amino(imino)methyl]amino)ethoxy)-2-hydroxybenzoyl]amino}-2-[(methoxycarbonyl)amino]propanoic acid], the IC50 amounted to 4.6 µM.
Turning to `CCOC(=O)N[C@@H](CNC(=O)c1ccc(OCCNC(=N)N)cc1O)C(=O)O` [Example 159, (2S)-3-{[4-(2-{[amino(imino)methyl]amino)ethoxy)-2-hydroxybenzoyl]amino}-2-[(ethoxycarbonyl)amino]propanoic acid], the IC50 amounted to 2 µM.
For `CCCOC(=O)N[C@@H](CNC(=O)c1ccc(OCCNC(=N)N)cc1O)C(=O)O` [Example 160, (2S)-3-{[4-(2-{[amino(imino)methyl]amino}ethoxy)-2-hydroxybenzoyl]amino}-2-[(propoxycarbonyl)amino]propanoic acid] the value was 0.97 µM; for `CC(C)OC(=O)N[C@@H](CNC(=O)c1ccc(OCCNC(=N)N)cc1O)C(=O)O` [Example 161, (2S)-3-{[4-(2-{[amino(imino)methyl]amino}ethoxy)-2-hydroxybenzoyl]amino}-2-[(isopropoxycarbonyl)amino]propanoic acid], 0.9 µM; for `C=CCOC(=O)N[C@@H](CNC(=O)c1ccc(OCCNC(=N)N)cc1O)C(=O)O` [Example 162], 1.1 µM.
Take `C=CCCOC(=O)N[C@@H](CNC(=O)c1ccc(OCCNC(=N)N)cc1O)C(=O)O` [Example 163, (2S)-3-{[4-(2-{[amino(imino)methyl]amino}ethoxy)-2-hydroxybenzoyl]amino}-2-{[(but-3-enyloxy)carbonyl]amino}propanoic acid]: the IC50 was found to be 1.1 µM.
With `CCCCOC(=O)N[C@@H](CNC(=O)c1ccc(OCCNC(=N)N)cc1O)C(=O)O` [Example 164, (2S)-3-{[4-(2-{[amino(imino)methyl]amino}ethoxy)-2-hydroxybenzoyl]amino}-2-[(butoxycarbonyl)amino]propanoic acid], the IC50 is 0.61 µM.
As to `N=C(N)NCCOc1ccc(C(=O)NC[C@H](NC(=O)OCC(Cl)(Cl)Cl)C(=O)O)c(O)c1` [Example 165, (2S)-3-{[4-(2-{[amino(imino)methyl]amino}ethoxy)-2-hydroxybenzoyl]amino}-2-{[(2,2,2-trichloroethoxy)carbonyl]amino}propanoic acid], the IC50 was determined as 0.39 µM.
As for `CCCCCCOC(=O)N[C@@H](CNC(=O)c1ccc(OCCNC(=N)N)cc1O)C(=O)O` [Example 166, (2S)-3-{[4-(2-{[amino(imino)methyl]amino}ethoxy)-2-hydroxybenzoyl]amino}-2-{[(hexyloxy)carbonyl]amino}propanoic acid], the IC50 amounted to 0.8 µM.
With `C#CCOC(=O)N[C@@H](CNC(=O)c1ccc(OCCNC(=N)N)cc1O)C(=O)O` [Example 167, (2S)-3-{[4-(2-{[amino(imino)methyl]amino}ethoxy)-2-hydroxybenzoyl]amino}-2-{[(prop-2-ynyloxy)carbonyl]amino}propanoic acid], the IC50 came out at 2.6 µM.
Regarding `Cc1ccccc1NC(=O)N[C@@H](CNC(=O)c1ccc(OCCNC(=N)N)cc1O)C(=O)O` [Example 173, (2S)-3-{[4-(2-{[amino(imino)methyl]amino}ethoxy)-2-hydroxybenzoyl]amino}-2-[(2-toluidinocarbonyl)amino]propanoic acid], the IC50 is 4.28 µM.
Consider `COc1ccccc1NC(=O)N[C@@H](CNC(=O)c1ccc(OCCNC(=N)N)cc1O)C(=O)O` [Example 174, (2S)-3-{[4-(2-{[amino(imino)methyl]amino}ethoxy)-2-hydroxybenzoyl]amino}-2-{[(2-methoxyanilino)carbonyl]amino}propanoic acid], for which the IC50 was found to be 3.89 µM.
For `N=C(N)NCCOc1ccc(C(=O)NC[C@H](NC(=O)Nc2ccccc2Cl)C(=O)O)c(O)c1` [Example 175, (2S)-3-{[4-(2-{[amino(imino)methyl]amino}ethoxy)-2-hydroxybenzoyl]amino}-2-{[(2-chloroanilino)carbonyl]amino}propanoic acid], the IC50 was found to be 3.8 µM.
For `N=C(N)NCCOc1ccc(C(=O)NC[C@H](NC(=O)Nc2ccccc2Br)C(=O)O)c(O)c1` [Example 176, (2S)-3-{[4-(2-{[amino(imino)methyl]amino}ethoxy)-2-hydroxybenzoyl]amino}-2-{[(2-bromoanilino)carbonyl]amino}propanoic acid], the IC50 came to 2.14 µM.
On to `N=C(N)NCCOc1ccc(C(=O)NC[C@H](NC(=O)Nc2ccccc2-c2ccccc2)C(=O)O)c(O)c1` [Example 177], for which the IC50 turned out to be 4.87 µM.
`Cc1ccc(NC(=O)N[C@@H](CNC(=O)c2ccc(OCCNC(=N)N)cc2O)C(=O)O)cc1` [Example 178, (2S)-3-{[4-(2-{[amino(imino)methyl]amino}ethoxy)-2-hydroxybenzoyl]amino}-2-[(4-toluidinocarbonyl)amino]propanoic acid]: the IC50 was determined as 3.13 µM.
Turning to `N=C(N)NCCOc1ccc(C(=O)NC[C@H](NC(=O)Nc2ccc(OC(F)(F)F)cc2)C(=O)O)c(O)c1` [Example 179, (2S)-3-{[4-(2-{[amino(imino)methyl]amino}ethoxy)-2-hydroxybenzoyl]amino}-2-({[4-(trifluoromethoxy)anilino]carbonyl}amino)propanoic acid], the IC50 is > 1 µM.
With `N=C(N)NCCOc1ccc(C(=O)NC[C@H](NC(=O)Nc2ccc(Cl)cc2)C(=O)O)c(O)c1` [Example 180, (2S)-3-{[4-(2-{[amino(imino)methyl]amino}ethoxy)-2-hydroxybenzoyl]amino}-2-{[(4-chloroanilino)carbonyl]amino}propanoic acid], the IC50 is 19.5 µM.
Regarding `N=C(N)NCCOc1ccc(C(=O)NC[C@H](NC(=O)Nc2ccc(F)cc2)C(=O)O)c(O)c1` [Example 181, (2S)-3-{[4-(2-{[amino(imino)methyl]amino}ethoxy)-2-hydroxybenzoyl]amino}-2-{[(4-fluoroanilino)carbonyl]amino}propanoic acid], the IC50 worked out at 19.7 µM.
Consider `CC(=O)c1ccc(NC(=O)N[C@@H](CNC(=O)c2ccc(OCCNC(=N)N)cc2O)C(=O)O)cc1` [Example 182, (2S)-2-{[(4-acetylanilino)carbonyl]amino}-3-{[4-(2-{[amino(imino)methyl]-amino}ethoxy)-2-hydroxybenzoyl]amino}propanoic acid], for which the IC50 came out at 40.9 µM.
Regarding `N=C(N)NCCOc1ccc(C(=O)NC[C@H](NC(=O)NC2CCCCC2)C(=O)O)c(O)c1` [Example 183, (2S)-3-{[4-(2-{[amino(imino)methyl]amino}ethoxy)-2-hydroxybenzoyl]amino}-2-{[(cyclohexylamino)carbonyl]amino}propanoic acid], the IC50 is 4.98 µM.
Consider `N=C(N)NCCOc1ccc(C(=O)NC[C@H](NC(=O)Nc2cccc3ccccc23)C(=O)O)c(O)c1` [Example 184, (2S)-3-{[4-(2-{[amino(imino)methyl]amino}ethoxy)-2-hydroxybenzoyl]amino}-2-{[(1-naphthylamino)carbonyl]amino}propanoic acid], for which the IC50 turned out to be 17.9 µM.
`N=C(N)NCCOc1ccc(C(=O)NC[C@H](NC(=O)NCc2ccccc2)C(=O)O)c(O)c1` [Example 185, (2S)-3-{[4-(2-{[amino(imino)methyl]amino}ethoxy)-2-hydroxybenzoyl]amino}-2-{[(benzylamino)carbonyl]amino}propanoic acid]: the IC50 was 4.57 µM.
In the case of `N=C(N)NCCOc1ccc(C(=O)NC[C@H](NC(=O)NCCc2ccccc2)C(=O)O)c(O)c1` [Example 186], the IC50 amounted to 6.99 µM.
On to `CCCCCCCCNC(=O)N[C@@H](CNC(=O)c1ccc(OCCNC(=N)N)cc1O)C(=O)O` [Example 187, (2S)-3-{[4-(2-{[amino(imino)methyl]amino}ethoxy)-2-hydroxybenzoyl]amino}-2-{[(octylamino)carbonyl]amino}propanoic acid], for which the IC50 amounted to 19.5 µM.
As for `COc1ccc(NC(=O)N[C@@H](CNC(=O)c2ccc(OCCNC(=N)N)cc2O)C(=O)O)cc1` [Example 188], the IC50 came out at 12.1 µM.
Take `N=C(N)NCCOc1ccc(C(=O)NC[C@H](NC(=O)Nc2ccccc2)C(=O)O)c(O)c1` [Example 189, (2S)-3-{[4-(2-{[amino(imino)methyl]amino}ethoxy)-2-hydroxybenzoyl]amino}-2-[(anilinocarbonyl)amino]propanoic acid]: the IC50 turned out to be 6.87 µM.
In the case of `CC(C)C(=O)N[C@@H](CNC(=O)c1ccc(OCCNC(=N)N)cc1O)C(=O)O` [Example 190, (2S)-3-{[4-(2-{[amino(imino)methyl]amino}ethoxy)-2-hydroxybenzoyl]amino}-2-(isobutyrylamino)propanoic acid] it was > 1 µM.
For `CCCC(=O)N[C@@H](CNC(=O)c1ccc(OCCNC(=N)N)cc1O)C(=O)O` [Example 191, (2S)-3-{[4-(2-{[amino(imino)methyl]amino}ethoxy)-2-hydroxybenzoyl]amino}-2-(butyrylamino)propanoic acid], the IC50 was > 1 µM.
For the compound `CCCCCC(=O)N[C@@H](CNC(=O)c1ccc(OCCNC(=N)N)cc1O)C(=O)O` [Example 192, (2S)-3-{[4-(2-{[amino(imino)methyl]amino}ethoxy)-2-hydroxybenzoyl]amino}-2-(hexanoylamino)propanoic acid], the IC50 was > 1 µM.
Turning to `CCCCC(=O)N[C@@H](CNC(=O)c1ccc(OCCNC(=N)N)cc1O)C(=O)O` [Example 193, (2S)-3-{[4-(2-{[amino(imino)methyl]amino}ethoxy)-2-hydroxybenzoyl]amino}-2-(pentanoylamino)propanoic acid], the IC50 is > 1 µM.
For `CC(C)(C)CC(=O)N[C@@H](CNC(=O)c1ccc(OCCNC(=N)N)cc1O)C(=O)O` [Example 194], the IC50 is > 1 µM.
In the case of `CC1(C)C(C(=O)N[C@@H](CNC(=O)c2ccc(OCCNC(=N)N)cc2O)C(=O)O)C1(C)C` [Example 195, (2S)-3-{[4-(2-{[amino(imino)methyl]amino}ethoxy)-2-hydroxybenzoyl]amino}-2-{[(2,2,3,3-tetramethylcyclopropyl)carbonyl]amino}propanoic acid], the IC50 was > 1 µM.
Consider `N=C(N)NCCOc1ccc(C(=O)NC[C@H](NC(=O)CC23CC4CC(CC(C4)C2)C3)C(=O)O)c(O)c1` [Example 196, (2S)-2-{[2-(1-adamantyl)acetyl]amino}-3-{[4-(2-{[amino(imino)methyl]amino}-ethoxy)-2-hydroxybenzoyl]amino}propanoic acid], for which the IC50 was found to be 5.71 µM.

The record behind these values is patent US20030186967A1, “Acylresorcinol derivatives are selective vitronectin receptor inhibitors” (American Home Products Corporation, priority 1998, published 2003).
